Our source for the IC50 values is BindingDB's records for doi:10.1016/j.bmcl.2009.07.009 (Konkuk University, 2009).

In assay [1] the target is T1, Replicase polyprotein 1ab (Severe acute respiratory syndrome coronavirus, UniProt P0C6X7). Put plainly: Inhibition of ATPase activity of SARS coronavirus helicase assessed as phosphate release by malachite green assay.
The target of assay [2] is T1, Replicase polyprotein 1ab. In words: Inhibition of SARS coronavirus helicase assessed as duplex-DNA unwinding by FRET based assay.

Molecules are shown by their SMILES.

Broadly, the IC50 is the concentration needed to halve the response being measured. Consider `O=c1c(O)ccc2oc(CNCc3cccc(Cl)c3)cc(O)c1-2` [2-[(3-Chloro-benzylamino)-methyl]-5,6-dihydroxy-chromen-4-one], for which the IC50 in assay [1] and in assay [2] was more than 50 µM in each case.

Consider `O=c1c(O)ccc2oc(CNCc3ccc(Cl)cc3)cc(O)c1-2` [2-[(4-Chloro-benzylamino)-methyl]-5,6-dihydroxy-chromen-4-one], for which the IC50 in assay [1] and in assay [2] was more than 50 µM each time.

As for `N#Cc1cccc(CNCc2cc(O)c3c(=O)c(O)ccc-3o2)c1` [3-{[(5,6-Dihydroxy-4-oxo-4H-chromen-2-ylmethyl)-amino]-methyl}-benzonitrile], the IC50 in assay [1] and in assay [2] was more than 50 µM throughout.
